# Data from article PMC4800810 (Biomacromolecules, 2015).
# Experiments:
# [1] = solubility in water; type: physicochemical; settings: 6BIO by itself, result in words
# [2] = 24 h organ biodistribution in mice with femoral fracture; type: in vivo, CD4 Swiss mice; settings: i.v.
substance,measurement,setting,value
6’-bromoindirubin-3’-oxime [6BIO],solubility in water,[1],only sparingly soluble in water
same,drug uptake in the fractured femur over the healthy femur,[2]; 125I-labelled analogues,no statistical difference
same,"accumulation in the lungs, liver, and spleen","[2]; 125I-labelled, result in words",high accumulation
